The values that follow come from ChEMBL document CHEMBL4007440, “Development of the First Generation of Disulfide-Based Subtype-Selective and Potent Covalent Pyruvate Dehydrogenase Kinase 1 (PDK1) Inhibitors” (J Med Chem, 2017).

Experiment [1] concerns the target T1, [Pyruvate dehydrogenase (acetyl-transferring)] kinase isozyme 1, mitochondrial (Homo sapiens, UniProt Q15118). As to the kind of experiment: Inhibition of full length His6-tagged PDK1 (unknown origin) expressed in Escherichia coli using full length His6-tagged PDHA1 as substrate after 30 mins by ELISA. For orientation: ELISA stands for enzyme-linked immunosorbent assay.

For experiment [2], the target named is T1, [Pyruvate dehydrogenase (acetyl-transferring)] kinase isozyme 1, mitochondrial. Put plainly: Inhibition of PDK1 in human A549 cells assessed as reduction in phosphorylation of PDHE1 at S293 residue at 10 uM after 24 hrs by chemiluminescence/femtochemiluminescence method. The format is cell-based.
For experiment [3] the target is unchanged. Put plainly: Inhibition of PDK1 in human A549 cells assessed as reduction in phosphorylation of PDHE1 at S232 residue at 10 uM after 24 hrs by chemiluminescence/femtochemiluminescence method. It is filed as cell-based.
The target is the same in experiment [4]. As to the kind of experiment: Inhibition of PDK1 in human A549 cells assessed as reduction in phosphorylation of PDHE1 at S293 residue at 1 uM after 24 hrs by chemiluminescence/femtochemiluminescence method. The format is cell-based.
Experiment [5] shares this target. Put plainly: Inhibition of PDK1 in human A549 cells assessed as reduction in phosphorylation of PDHE1 at S232 residue at 1 uM after 24 hrs by chemiluminescence/femtochemiluminescence method. The format is cell-based.
Experiment [6] shares this target. Put plainly: Inhibition of full length His6-tagged PDK1 (unknown origin) expressed in Escherichia coli assessed as inactivation rate using full length His6-tagged PDHA1 as substrate up to 45 mins by ELISA.
For experiment [7] the target is unchanged. Put plainly: Ratio of Kinact to Ki for full length His6-tagged PDK1 (unknown origin) expressed in Escherichia coli.

Active and inactive are the calls of the source. The calls are words filed in the database; no cut-off is given here.

T1 sequence (Q15118 whole entry): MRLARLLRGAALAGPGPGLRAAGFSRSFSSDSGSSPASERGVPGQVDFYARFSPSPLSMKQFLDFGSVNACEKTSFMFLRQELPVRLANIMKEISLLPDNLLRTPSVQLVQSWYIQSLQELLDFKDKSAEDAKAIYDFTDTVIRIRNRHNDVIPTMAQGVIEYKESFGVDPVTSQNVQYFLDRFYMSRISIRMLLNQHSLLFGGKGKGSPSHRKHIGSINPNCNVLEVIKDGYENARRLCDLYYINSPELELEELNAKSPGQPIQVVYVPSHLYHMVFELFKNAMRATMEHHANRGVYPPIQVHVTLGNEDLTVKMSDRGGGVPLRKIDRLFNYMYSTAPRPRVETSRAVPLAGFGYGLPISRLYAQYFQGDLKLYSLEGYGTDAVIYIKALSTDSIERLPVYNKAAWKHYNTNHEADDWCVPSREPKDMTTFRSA

On to `C1CCc2sc(SSc3nc4c(s3)CCCC4)nc2C1`, for which the IC50 (commonly the midpoint of a concentration-inhibition curve) in experiment [1] amounted to 90 nM.
In the case of `OCCOCC1CN(C(=S)SSC(=S)N2CCCOC(COCCO)C2)CCCO1` (stereo not drawn), the IC50 in experiment [1] was determined as 6830 nM.
In the case of `CC1CCc2nc(SSc3nc4c(s3)CC(C)CC4)sc2C1` (stereo not drawn), the IC50 in experiment [1] was found to be 119 nM.
In the case of `CCOC[C@@H]1COCCN1C(=S)SSC(=S)N1CCOC[C@H]1COCC`, in experiment [1], 72 nM corresponded to half-maximal inhibition (IC50). Further, the inhibition entry in experiment [2], in experiment [3], in experiment [4] and in experiment [5] was “Active” each time.
The compound `CC1(C)CCc2nc(SSc3nc4c(s3)CC(C)(C)CC4)sc2C1` gave an IC50 in experiment [1] of 218 nM.
On the same count and under the same terms, to `C1Cc2nc(SSc3nc4c(s3)CCC4)sc2C1` belongs 139 nM.
In experiment [1], `C[C@@H]1CN(C(=S)SSC(=S)N2C[C@@H](C)O[C@@H](C)C2)C[C@H](C)O1` gave an IC50 of 32 nM. Also, the inhibition result in experiment [2], in experiment [3], in experiment [4] and in experiment [5] was “Active” throughout.
In the case of `c1cnc2sc(SSc3nc4cccnc4s3)nc2c1`, the IC50 in experiment [1] was found to be 476 nM.
Compound `c1ccc2sc(SSc3nc4ccccc4s3)nc2c1` [BENZOTHIAZYL DISULFIDE] showed a concentration for half-maximal inhibition (IC50) in experiment [1] of 379 nM.
For `CN(C)C(=O)OCC1CN(C(=S)SSC(=S)N2CCOC(COC(=O)N(C)C)C2)CCO1` (stereo not drawn), 1700 nM corresponded to half-maximal inhibition in experiment [1] (IC50).
Regarding `S=C(SSC(=S)N1CCOC(COc2cccc3ccccc23)C1)N1CCOC(COc2cccc3ccccc23)C1` (stereo not drawn), in experiment [1], the IC50 was found to be 3870 nM and the affinity, expressed as Ki, was 22600 nM. Moreover, in experiment [6], the Kinact was 6.9 ×10⁻⁴ /s. In addition, the Ratio in experiment [7] was determined as 0.03 ×10³ /M/s.
On to `COCC1CN(C(=S)SSC(=S)N2CCOC(COC)C2)CCO1` (stereo not drawn), for which, in experiment [1], the IC50 came to 90 nM. Further, the inhibition result in experiment [2], in experiment [3], in experiment [4] and in experiment [5] was “Active” throughout.
Regarding `COCC1CN(C(=S)SSC(=S)N2CCCOC(COC)C2)CCCO1` (stereo not drawn), in experiment [1], the IC50 is 350 nM.
Take `OC1CN(C(=S)SSC(=S)N2CC(O)C2)C1`: in experiment [1], the midpoint of inhibition, the IC50, lay at 395 nM and the Ki (in general, a measure of affinity in units of concentration, obtained from inhibition or displacement) worked out at 872 nM. Further, the Kinact in experiment [6] amounted to 4.74 ×10⁻⁴ /s. The Ratio in experiment [7] worked out at 0.07 ×10³ /M/s.
`C1Cc2nc(SSc3nc4c(s3)COCC4)sc2CO1` displayed an IC50 in experiment [1] of 169 nM.
In experiment [1], `CCOC(=O)C1CCc2nc(SSc3nc4c(s3)CC(C(=O)OCC)CC4)sc2C1` (stereo not drawn) displayed an IC50 of 109 nM.
For `CCOCC1CN(C(=S)SSC(=S)N2CCCOC(COCC)C2)CCCO1` (stereo not drawn), in experiment [1], the IC50 was 622 nM.
`CCOCC1CN(C(=S)SSC(=S)N2CCOC(COCC)C2)CCO1` (stereo not drawn): in experiment [1], the IC50 stood at 101 nM.
In experiment [1], `CC(=O)OCC1CN(C(=S)SSC(=S)N2CCOC(COC(C)=O)C2)CCO1` (stereo not drawn) returned an IC50 of 113 nM. The inhibition entry in experiment [2], in experiment [3], in experiment [4] and in experiment [5] was “Active” throughout.
`CN(C)C(=O)OCC1CN(C(=S)SSC(=S)N2CCCOC(COC(=O)N(C)C)C2)CCCO1` (stereo not drawn): in experiment [1], the IC50 came to 1460 nM.
In experiment [1], `c1csc(SSc2nccs2)n1` returned an IC50 of 326 nM and a Ki of 3730 nM. In addition, the Kinact in experiment [6] came to 56.5 ×10⁻⁴ /s. The Ratio in experiment [7] stood at 1.53 ×10³ /M/s.
Compound `O=C(O)C1CN(C(=S)SSC(=S)N2CCOC(C(=O)O)C2)CCO1` (stereo not drawn) returned an IC50 in experiment [1] of 126 nM.
As for `S=C(SSC(=S)N1CCO[C@H]2CCCC[C@@H]21)N1CCO[C@H]2CCCC[C@@H]21`, the IC50 in experiment [1] is 289 nM. Moreover, the inhibition entry in experiment [2] is “Active”.
For the compound `O=C(O)C1CCc2nc(SSc3nc4c(s3)CC(C(=O)O)CC4)sc2C1` (stereo not drawn), the IC50 in experiment [1] worked out at 130 nM.
`S=C(SSC(=S)N1CCOC(COc2ccccc2)C1)N1CCOC(COc2ccccc2)C1` (stereo not drawn) yielded an IC50 in experiment [1] of 247 nM. Further, the inhibition result in experiment [2] was “Active”.
In experiment [1], `OCC1CN(C(=S)SSC(=S)N2CCCOC(CO)C2)CCCO1` (stereo not drawn) returned an IC50 of 2850 nM.
Turning to `S=C(SSC(=S)N1CCOc2ccccc21)N1CCOc2ccccc21`, in experiment [1], the IC50 came to 1050 nM and the Ki stood at 3350 nM. Moreover, the Kinact in experiment [6] worked out at 2.1 ×10⁻⁴ /s. In addition, in experiment [7], the Ratio stood at 0.06 ×10³ /M/s.
The compound `CCCCOCC1CN(C(=S)SSC(=S)N2CCCOC(COCCCC)C2)CCCO1` (stereo not drawn) yielded a half-maximal inhibitory concentration (IC50) in experiment [1] of 588 nM.
In experiment [1], `C1CCc2nc(SSc3nc4c(s3)CCCCC4)sc2CC1` gave an IC50 of 39 nM and a Ki of 1800 nM. The Kinact in experiment [6] is 69.9 ×10⁻⁴ /s. The Ratio in experiment [7] worked out at 3.93 ×10³ /M/s.
Turning to `O=[N+]([O-])c1ccc2nc(SSc3nc4ccc([N+](=O)[O-])cc4s3)sc2c1`, in experiment [1], the IC50 worked out at 161 nM.
In experiment [1], `COC[C@H]1COCCN1C(=S)SSC(=S)N1CCOC[C@@H]1COC` returned a 50% inhibitory concentration (IC50) of 30 nM and a Ki of 120 nM.
`CCCCCCCCCCOCC1CN(C(=S)SSC(=S)N2CCCOC(COCCCCCCCCCC)C2)CCCO1` (stereo not drawn) gave an IC50 in experiment [1] of more than 10000 nM.
On the same count and under the same terms, to `S=C(SSC(=S)N1CCCOC(COc2ccccc2)C1)N1CCCOC(COc2ccccc2)C1` (stereo not drawn) belongs 609 nM.
For the compound `Cc1ccc(OCC2CN(C(=S)SSC(=S)N3CCOC(COc4ccc(C)cc4)C3)CCO2)cc1` (stereo not drawn), in experiment [1], the IC50 stood at 2410 nM.
On the same count and under the same terms, in the case of `Cc1ccc(OCC2CN(C(=S)SSC(=S)N3CCCOC(COc4ccc(C)cc4)C3)CCCO2)cc1` (stereo not drawn) it was more than 10000 nM.
As to `COC(=O)C1CN(C(=S)SSC(=S)N2CCOC(C(=O)OC)C2)CCO1` (stereo not drawn), the IC50 in experiment [1] stood at 85 nM. In addition, the inhibition result in experiment [2], in experiment [3], in experiment [4] and in experiment [5] was “Active” each time.
In the case of `CC1CN(C(=S)SSC(=S)N2CCOC(C)C2)CCO1` (stereo not drawn), the IC50 in experiment [1] was determined as 96 nM. Moreover, the inhibition entry in experiment [2], in experiment [3], in experiment [4] and in experiment [5] was “Active” each time.
In experiment [1], `OC[C@@H]1COCCN1C(=S)SSC(=S)N1CCOC[C@H]1CO` came in with an IC50 of 2440 nM and a Ki of 4030 nM. For the same compound, in experiment [6], the Kinact stood at 3.24 ×10⁻⁴ /s. Moreover, the Ratio in experiment [7] is 0.54 ×10³ /M/s.
Regarding `OCC1CN(C(=S)SSC(=S)N2CCOC(CO)C2)CCO1` (stereo not drawn), half-maximal inhibition in experiment [1] (IC50) required 702 nM. Besides, the inhibition entry in experiment [2] and in experiment [3] was “Active” throughout. Moreover, the inhibition result in experiment [4] and in experiment [5] was “inactive” each time.
